# Test results: article PMC9139161, “Phenolics from Chrozophora oblongifolia Aerial Parts as Inhibitors of α-Glucosidases and Advanced Glycation End Products: In-Vitro Assessment, Molecular Docking and Dynamics Studies” (Biology, 2022)
# How the values were obtained:
# [1] = Metal chelation assay (ferrozine); conditions: concentration-response curve
# Description: Isolated compounds were dissolved in DMSO to prepare a concentration of 0.5 mg/mL, meanwhile, the positive control (EDTA) was used to prepare a stock solution of 100 µM in water; from which six concentrations were prepared including 5, 10, 20, 40, 50 and 80 µM to construct the dose-response curve. The assay was carried out as previously reported, with minor modifications. Briefly, in 96 wells plate (n = 6) 20 µL of the freshly prepared ferrous sulfate (0.3 mM) was mixed with 50 µL of the tested compound and incubated with 30 µL of ferrozine (0.8 mM) for 10 min at room temperature. Finally, reduction in color intensity was assessed at 540 nm using a microplate reader (Tecan, San Jose, CA, USA). Data are represented as means (n = 3) ± SD and the antioxidant effect of the extracts was calculated as µM EDTA equivalents by substitution in the linear regression equation (Supplementary Figure S4).
# [2] = tested on: advanced glycation end products (AGEs) formation, BSA-methylglyoxal model; assay: AGEs formation inhibition, BSA-methylglyoxal assay; type: biochemical; conditions: AGEs fluorescence, 72 h, 37 °C; read-out: BSA-Methylglyoxal Model IC50 (Mean ± SE)
# Description: (§1) The isolated compounds were prepared at final concentrations of 500 µM in DMSO in the BSA-fructose assay, and 1000 µM in all other AGEs assays. Compounds that exceeded 50% inhibition at this concentration were serially diluted to determine their IC50. All tests were conducted using quercetin (positive control).
# AGEs inhibitory activity of the isolated compounds was determined according to the reported procedures with slight modification. Briefly, in black 96-microwell plates, samples were incubated for 72 h at 37 °C in the dark with bovine serum albumin (BSA, 50 mg/mL) (in 200 mM phosphate buffer, pH 7.4, with 0.02% sodium azide) and methyl-glyoxal (53.3 mM, in distilled water), (1:1:1 v/v/v). On a microplate reader (Fluostar Omega/BMG Labtech/Germany), fluorescent AGEs were detected using excitation and emission wavelengths of 355 nm and 460 nm, respectively. Triplicates of all experiments were performed.
# [3] = tested on: advanced glycation end products (AGEs) formation, BSA-fructose model; assay: AGEs formation inhibition, BSA-fructose assay; type: biochemical; conditions: AGEs fluorescence, 72 h, 37 °C; read-out: BSA-Fructose Model IC50 (Mean ± SE)
# Description: as §1
# According to the previous report, the inhibition test for AGE formation was assessed using the BSA-fructose model. Briefly, BSA (50 mg/mL) and fructose (1.25 M) (in 200 mM phosphate buffer, pH 7.4, with 0.02% sodium azide) were incubated with Sample/blank in the dark for 72 h at 37 °C, (1:1:1 by volume). On a microplate reader (Fluostar Omega BMG Labtech, Ortenberg, Germany), fluorescent AGEs were detected using excitation and emission wavelengths of 355 nm and 460 nm, respectively. Triplicates of all experiments were performed, and the percentage of AGEs inhibition was calculated.
# [4] = tested on: advanced glycation end products (AGEs) formation, arginine-methylglyoxal model; assay: AGEs formation inhibition, arginine-methylglyoxal assay; type: biochemical; conditions: AGEs fluorescence, 72 h, 37 °C; read-out: Arginine-Methylglyoxal Model IC50 (Mean ± SE)
# Description: as §1
# The determination of the inhibitory effect of the isolated compounds on the formation of AGEs in the arginine methylglyoxal model was used as described previously with slight modification. Briefly, in black 96-microwell plates, a sample was incubated for 72 h at 37 °C in the dark with methylglyoxal (53.3 mM, in distilled water) and 106.6 mM arginine (in 200 mM phosphate buffer, pH 7.4, with 0.02% sodium azide), (1:1:1 v/v/v). On a microplate reader (Fluostar Omega/BMG Labtech/Germany), fluorescent AGEs were detected using excitation and emission wavelengths of 355 nm and 460 nm, respectively. Triplicates of all experiments were performed.
# ABTS assay = conditions: concentration-response curve
# Description: DMSO was used for the preparation of 0.5 mg/mL concentrations of isolated compounds, meanwhile, the positive control (ascorbic acid) was used to prepare a stock solution of 1000 µM in water; from which seven concentrations were prepared including 7.812, 15.625, 31.25, 62.5, 125, 250 and 500 µM to construct the concentration-response curve (Supplementary Data Figure S2). The activity of the tested compounds to scavenge the free radicals of ABTS (2,2′-azino-bis (3-ethylbenzothiazoline-6-sulfonic acid)) was assessed according to the methodology reported previously with slight modifications.
# Five milliliters of aqueous solution (7 mM) of ABTS was mixed with 88 µL potassium persulfate (140 mM) and the mixture was kept in the dark for 16 h to produce ABTS radical cation (ABTS^•+). Then methanol was added to the reaction mixture to dilute the formed ABTS^•+ solution to an absorbance of 0.700 (1:50) at 690 nm.
# Ten microliters of the tested compound were incubated with 190 μL of ABTS^•+ solution in a 96-well plate for thirty minutes in the dark and the absorbance was measured later using a microplate reader (TECAN, Männedorf, Switzerland) at 690 nm. Data are represented as means (n = 3) ± SD and the antioxidant effect of the tested compounds was calculated as µM Ascorbic acid equivalents by substitution in the linear regression equation (Supplementary Figure S2).
# DPPH assay = conditions: read-out: DPPH assay IC50 (Mean ± SE)
# Description: Isolated compounds were prepared in final concentrations of 1000 µM in DMSO. Compounds that exceeded 50% inhibition at this concentration were serially diluted to determine their IC50. Ascorbic acid was used as a positive control, prepared in a concentration of 100 µM in water from which six concentrations were prepared to calculate its IC50. The method is based on the reduction of free radical of 2,2-diphenyl-1-picrylhydrazyl (DPPH). Briefly, in a 96-well plate, 20 μL of the isolated compound was incubated for 20 min in the absence of light with 180 μL of DPPH reagent (100 μM). The reduction of intensity in the color of DPPH was assessed on a microplate reader (TECAN, Männedorf, Switzerland) at 540 nm (Supplementary Table S2).
smiles,measurement,setting,value
"O=C(O)CN(CCN(CC(=O)O)CC(=O)O)CC(=O)O [EDTA, reference compound]",Metal chelation % inhibition,[1]; 5 µM,8.429%
same,Metal chelation % inhibition,[1]; 10 µM,13.464%
same,Metal chelation % inhibition,[1]; 20 µM,19.624%
same,Metal chelation % inhibition,[1]; 40 µM,41.866%
same,Metal chelation % inhibition,[1]; 50 µM,48.303%
same,Metal chelation % inhibition,[1]; 80 µM,72.307%
"O=c1c(O)c(-c2ccc(O)c(O)c2)oc2cc(O)cc(O)c12 [Quercetin, quercetin, reference compound]",IC50,[2],941 µM
same,IC50,[3],62 µM
same,IC50,[4],536 µM
"O=C1O[C@H]([C@@H](O)CO)C(O)=C1O [ascorbic acid, Ascorbic acid]",ABTS % inhibition,ABTS assay; 7.8125 µM,2.8930%
same,ABTS % inhibition,ABTS assay; 15.625 µM,3.7803%
same,ABTS % inhibition,ABTS assay; 31.25 µM,5.5156%
same,ABTS % inhibition,ABTS assay; 62.5 µM,9.7291%
same,ABTS % inhibition,ABTS assay; 125 µM,16.88%
same,ABTS % inhibition,ABTS assay; 250 µM,33.5451%
same,ABTS % inhibition,ABTS assay; 500 µM,62.86%
same,IC50,DPPH assay,28 µM
